Measured values published in US20240216355A1, “PHARMACEUTICAL COMPOSITIONS FOR USE IN THE PREVENTION AND TREATMENT OF A DISEASE OR DISORDER CAUSED BY OR ASSOCIATED WITH ONE OR MORE PREMATURE TERMINATION CODONS” (Monte Rosa Therapeutics, Inc., priority 2021, published 2024).

Molecular target: T1, GSPT1 (Homo sapiens, UniProt P15170+Q96SW2)
T1 construct: CAL-51 cells were purchased from DSMZ (cat. Number ACC302); host or cells: CAL-51 cells
Experiment: GSPT1 degradation immunofluorescence assay in CAL-51 cells
Assay type: cell-based
Conditions: 6 hours treatment, compounds 201 to 307, read-out: Activity for GSPT1 degradation (DC50 code)
Protocol: CAL-51 cells were purchased from DSMZ (cat. Number ACC302), sub-cultured in 90% Dulbecco's MEM (4.5 g/L glucose, Gibco 11965)+10% heat inactivated FBS (BioConcept, 2-01F1361) and incubated at 37° C., 5% CO2. For the assay, imaging microtiterplate Cell Carrier 96 Ultra (Perkin Elmer 6055302) were pre-coated with Fibronectin (Sigma F085, 30 μl at 0.2 μg/ml) in PBS (100p, Gibco 14190) for 45 min at room temperature, rinsed with PBS and CAL-51 cells (30K cells/well) were plated and let to adhere overnight. Cells were treated with compounds typically using a serial dilution ranging from 30 μM to 0.1 nM for 6 hours. Compounds were stored at 10 mM DMSO stocks. Vehicle (DMSO), positive (CC-885, 10 μM) and rescue controls (positive control plus 0.2 μM bortezomib) were also included at this stage. Cells were subsequently rinsed with PBS and fixed in 10% Formalin solution (50p, Sigma HT5011)) for 20 mins at room temperature. Following three consecutive PBS washes (100 μl), cells were permeabilized in 0.1% Triton X-100 in PBS (Sigma 93443, 50 μl) for 15 mins at room temperature. Following three further PBS washes, 50 μl blocking buffer (1% BSA, Sigma A4503, in PBS) was added for 45 min for signal-to-noise reduction. Primary antibody (human GSPT1, Sigma HPA052488) was diluted in blocking buffer (dil.1/300, 35 μl/well) and incubated with the cells overnight at 4° C. After three PBS washes, Alexa-fluor 488 coupled secondary antibodies (Invitrogen, A32731, dil. 1/1000), Alexa-fluor 647-Phalloïdin (Invitrogen, A22287, dil. 1/200) and DAPI (Thermo, #62248, dil.1/1000) were diluted in blocking buffer and incubated with the samples for 2 hours at room temperature. After three final PBS washes, samples were conserved in 100 μl PBS in the dark, until measurement. Image acquisition was performed on the Operetta High-Content Imager (Perkin-Elmer). Fluorescence intensity of Alexa-Fluor 488 (GSPT1), Alexa-Fluor 647 (Actin) and DAPI (Nucleus) were measured. For the determination of GSPT1 DC50 values, a custom algorithm implemented in the PerkinElmer image analysis software Harmony-Acapella@ was developed. After user-defined setting of adjustment parameters, the analysis was run identically without human intervention for all image fields. DAPI staining of the nuclei was used to determine the location of cells using standard nuclei detection modules. Segmentation artifacts were removed by threshold-based filters for area, roundness and intensity. The outline of the cells was determined analogously from the sum of the normalized, smoothed DAPI and Actin channel, starting from each nucleus.
The Alexa-Fluor 488 (GSPT1) signal intensity in each cell was finally measured, in order to obtain a Mean intensity per cell. GSPT1 degradation (DC50) was calculated after normalization to controls and data import in CDD vault Database, using non-linear regression.

T1 sequence (P15170 whole entry): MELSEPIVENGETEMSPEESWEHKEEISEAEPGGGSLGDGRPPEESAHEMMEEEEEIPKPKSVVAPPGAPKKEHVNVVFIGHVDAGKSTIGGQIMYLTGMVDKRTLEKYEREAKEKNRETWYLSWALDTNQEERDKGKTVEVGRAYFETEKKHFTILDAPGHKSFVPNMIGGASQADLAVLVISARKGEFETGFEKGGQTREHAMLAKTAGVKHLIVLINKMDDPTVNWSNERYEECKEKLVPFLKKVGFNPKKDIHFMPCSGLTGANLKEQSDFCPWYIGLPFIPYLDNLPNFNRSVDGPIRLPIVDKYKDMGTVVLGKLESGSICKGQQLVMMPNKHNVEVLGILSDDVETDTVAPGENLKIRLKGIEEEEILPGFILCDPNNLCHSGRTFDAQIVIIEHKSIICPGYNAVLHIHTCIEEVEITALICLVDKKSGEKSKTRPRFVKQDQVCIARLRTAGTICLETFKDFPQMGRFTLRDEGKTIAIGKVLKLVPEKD
T1 sequence (Q96SW2 whole entry): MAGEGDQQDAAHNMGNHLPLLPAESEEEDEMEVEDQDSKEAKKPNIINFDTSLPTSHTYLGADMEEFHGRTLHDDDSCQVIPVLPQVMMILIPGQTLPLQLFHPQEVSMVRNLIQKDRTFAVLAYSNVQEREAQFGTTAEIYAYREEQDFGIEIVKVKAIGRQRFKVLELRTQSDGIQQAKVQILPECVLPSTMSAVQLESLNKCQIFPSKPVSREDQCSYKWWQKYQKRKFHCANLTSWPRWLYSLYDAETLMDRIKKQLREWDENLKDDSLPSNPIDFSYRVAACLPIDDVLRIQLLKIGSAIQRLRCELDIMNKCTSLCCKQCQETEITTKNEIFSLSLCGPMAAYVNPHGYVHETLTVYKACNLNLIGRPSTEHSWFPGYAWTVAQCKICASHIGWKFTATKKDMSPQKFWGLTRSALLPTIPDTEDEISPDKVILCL
T1 sequence (Q16531 whole entry partner): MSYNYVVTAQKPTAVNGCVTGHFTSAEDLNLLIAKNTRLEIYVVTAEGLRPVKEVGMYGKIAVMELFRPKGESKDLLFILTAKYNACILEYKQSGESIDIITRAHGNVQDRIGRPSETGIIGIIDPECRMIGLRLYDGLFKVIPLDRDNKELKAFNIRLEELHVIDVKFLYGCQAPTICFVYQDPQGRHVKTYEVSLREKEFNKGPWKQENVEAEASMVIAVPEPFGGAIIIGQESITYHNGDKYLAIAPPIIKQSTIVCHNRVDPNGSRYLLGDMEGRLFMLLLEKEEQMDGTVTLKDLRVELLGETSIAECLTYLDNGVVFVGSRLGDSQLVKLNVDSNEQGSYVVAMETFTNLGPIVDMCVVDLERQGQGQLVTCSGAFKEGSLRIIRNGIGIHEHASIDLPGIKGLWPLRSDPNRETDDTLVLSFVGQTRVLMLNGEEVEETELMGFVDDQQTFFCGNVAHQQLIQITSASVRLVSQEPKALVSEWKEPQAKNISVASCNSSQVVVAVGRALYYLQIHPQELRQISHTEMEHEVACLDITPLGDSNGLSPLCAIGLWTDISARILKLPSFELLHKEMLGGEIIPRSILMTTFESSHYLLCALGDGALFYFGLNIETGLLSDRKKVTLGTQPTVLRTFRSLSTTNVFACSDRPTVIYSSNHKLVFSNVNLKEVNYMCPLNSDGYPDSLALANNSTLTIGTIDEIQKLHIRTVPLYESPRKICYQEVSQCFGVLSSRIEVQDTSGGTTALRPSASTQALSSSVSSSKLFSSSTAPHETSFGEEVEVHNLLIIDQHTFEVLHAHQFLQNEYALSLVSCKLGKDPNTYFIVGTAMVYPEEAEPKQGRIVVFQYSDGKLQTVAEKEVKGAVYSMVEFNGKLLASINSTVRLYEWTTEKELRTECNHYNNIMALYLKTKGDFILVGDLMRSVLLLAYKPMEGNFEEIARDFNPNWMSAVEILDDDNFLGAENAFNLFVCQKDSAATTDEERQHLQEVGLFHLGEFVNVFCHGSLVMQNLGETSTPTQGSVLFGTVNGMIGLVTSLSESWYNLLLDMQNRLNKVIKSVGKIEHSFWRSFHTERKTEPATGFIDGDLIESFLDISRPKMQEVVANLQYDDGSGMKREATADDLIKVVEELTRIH

DC50, < 30 nM:
O=C1CCC(N2Cc3ccc(COC(=O)Nc4ccc(F)c(OC(F)(F)F)c4)cc3C2=O)C(=O)N1 (stereo not drawn) [Compound 261]
Cc1c(Cl)cc(NC(=O)OCc2ccc3c(c2)C(=O)N(C2CCC(=O)NC2=O)C3)cc1CN1CC2CC1CO2 (stereo not drawn) [Compound 213]
O=C1CCC(N2Cc3ccc(COC(=O)Nc4cnc(-c5ccccc5)c(F)c4)cc3C2=O)C(=O)N1 (stereo not drawn) [Compound 285]
Cc1ccccc1-c1ccc(NC(=O)OCc2ccc3c(c2)C(=O)N(C2CCC(=O)NC2=O)C3)cn1 (stereo not drawn) [Compound 286]
CC1CCCN1c1ccc(NC(=O)OCc2ccc3c(c2)C(=O)N(C2CCC(=O)NC2=O)C3)cn1 (stereo not drawn) [Compound 274]
O=C1CCC(N2Cc3ccc(COC(=O)Nc4cc(CN5CCOCC5)cc(OC(F)(F)F)c4)cc3C2=O)C(=O)N1 (stereo not drawn) [Compound 204]
Cc1c(CN2CCOCC2)cc(NC(=O)OCc2ccc3c(c2)C(=O)N(C2CCC(=O)NC2=O)C3)cc1OC(F)(F)F (stereo not drawn) [Compound 234]
O=C1CCC(N2Cc3ccc(COC(=O)Nc4cc(Cl)cc(OC(F)(F)F)c4)cc3C2=O)C(=O)N1 (stereo not drawn) [Compound 211]
CCc1ncc(NC(=O)OCc2ccc3c(c2)C(=O)N(C2CCC(=O)NC2=O)C3)cc1C (stereo not drawn) [Compound 249]
O=C1CCC(N2Cc3ccc(COC(=O)Nc4cc(F)cc(OC(F)(F)F)c4)cc3C2=O)C(=O)N1 (stereo not drawn) [Compound 257]
O=C1CCC(N2Cc3ccc(COC(=O)Nc4cccc(OC(F)F)c4)cc3C2=O)C(=O)N1 (stereo not drawn) [Compound 205]
Cc1c(Cl)cc(NC(=O)OCc2ccc3c(c2)C(=O)N(C2CCC(=O)NC2=O)C3)cc1OCCN1CCOCC1 (stereo not drawn) [Compound 248]
Cc1c(Cl)cc(NC(=O)OCc2ccc3c(c2)C(=O)N(C2CCC(=O)NC2=O)C3)cc1CN1CC2CCC(C1)O2 (stereo not drawn) [Compound 221]
O=C1CCC(N2Cc3ccc(COC(=O)Nc4ccc(-c5ccccn5)cc4)cc3C2=O)C(=O)N1 (stereo not drawn) [Compound 250]
COc1cc(C)c(Cl)cc1NC(=O)OCc1ccc2c(c1)C(=O)N(C1CCC(=O)NC1=O)C2 (stereo not drawn) [Compound 201]
COc1cc(NC(=O)OCc2ccc3c(c2)C(=O)N(C2CCC(=O)NC2=O)C3)cnc1-c1ccccc1 (stereo not drawn) [Compound 290]
O=C1CCC(N2Cc3ccc(COC(=O)Nc4ccc5c(c4)OC(F)(F)O5)cc3C2=O)C(=O)N1 (stereo not drawn) [Compound 279]
O=C1CCC(N2Cc3ccc(COC(=O)Nc4cc(CN5CCOCC5)cc(OC(F)F)c4)cc3C2=O)C(=O)N1 (stereo not drawn) [Compound 295]
O=C1CCC(N2Cc3ccc(COC(=O)Nc4ccc(-c5ccccc5)nc4)cc3C2=O)C(=O)N1 (stereo not drawn) [Compound 242]
Cc1ccc(NC(=O)OCc2ccc3c(c2)C(=O)N(C2CCC(=O)NC2=O)C3)cc1Cl (stereo not drawn) [Compound 210]
O=C1CCC(N2Cc3ccc(COC(=O)Nc4cc(OCCN5CCOCC5)cc(OC(F)F)c4)cc3C2=O)C(=O)N1 (stereo not drawn) [Compound 296]
CN1CCC(Oc2cc(Cl)cc(NC(=O)OCc3ccc4c(c3)C(=O)N(C3CCC(=O)NC3=O)C4)c2)C1 (stereo not drawn) [Compound 246]
CC1CCN(c2ccc(NC(=O)OCc3ccc4c(c3)C(=O)N(C3CCC(=O)NC3=O)C4)cn2)C1 (stereo not drawn) [Compound 269]
O=C1CCC(N2Cc3ccc(COC(=O)Nc4ccc(-c5ccccc5F)nc4)cc3C2=O)C(=O)N1 (stereo not drawn) [Compound 284]
CC(C)(C)c1ccc(NC(=O)OCc2ccc3c(c2)C(=O)N(C2CCC(=O)NC2=O)C3)cn1 (stereo not drawn) [Compound 243]
CC(C)(C)c1ccc(NC(=O)OCc2ccc3c(c2)C(=O)N(C2CCC(=O)NC2=O)C3)cc1 (stereo not drawn) [Compound 247]

Molecular target: T2, Full length wild-type cereblon CRBN (Homo sapiens, UniProt Q96SW2)
T2 construct: Full length wild-type cereblon CRBN (80.0 nM, 10 μL) was incubated in assay buffer
T2 sequence (Q96SW2 whole entry): as the sequence (Q96SW2 whole entry) above
Experiment: Fluorescence polarization (FP) assay indicating cereblon binding
Conditions: not given
Protocol: Compound activity was monitored in a fluorescence polarization (FP) homogeneous assay using 1-[5-({2-[2-(2-{[2-(2,6-dioxopiperidin-3-yl)-1,3-dioxo-2,3-dihydro-1H-isoindol-4-yl]oxy}acetamido)ethoxy]ethyl}carbamoyl)pentyl]-3,3-dimethyl-2-[(1E,3E)-5-[(2E)-1,3,3-trimethyl-5-sulfo-2,3-dihydro-1H-indol-2-ylidene]penta-1,3-dien-1-yl]-3H-indol-1-ium-5-sulfonate as a fluorescent probe. Unless otherwise stated, all reagents were purchased from Sigma Aldrich. Enzymatic reactions were conducted in Perkin-Elmer Black 384 well ProxiPlate Plus (catalogue no. 6008269) in 10 μL total volume. Full length wild-type cereblon CRBN (80.0 nM, 10 μL) was incubated in assay buffer containing 20 mM HEPES (pH 8.0), […], 0.5 mM TCEP and 0.05% Tween 20 in the presence or absence of compound (300 nL). Inhibitors were stored as 10 mM DMSO stocks in an inert environment (low humidity, dark, low oxygen, room temperature) using the Storage Pod System. Compounds and DMSO were dispensed using the Echo E5XX (Labcyte Inc. USA) to give concentrations from 300 to 0.937 or 3000 to 9.3 nM in a 12 data point curve. […] Following incubation at room temperature for 30 min, the assay was initiated by dispensing the probe to a final concentration of 5 nM (2.5 nL of a 20 μM stock) using the Echo E5XX. FP was measured after a period of 12 hours using a Pherastar plate reader (BMG Labtech, Germany) exciting at 590 nm and measuring the amount of parallel and perpendicular light at 675 nm. The FP signal was subsequently normalized to the no-compound control (i.e., DMSO). Analysis and IC50 values were derived using Dotmatics (Dotmatics UK) software.

IC50, < 1100 nM:
Cc1cc(NC(=O)OCc2ccc3c(c2)C(=O)N(C2CCC(=O)NC2=O)C3)cc(C)n1 (stereo not drawn) [Compound 207]
Cc1c(Cl)cc(NC(=O)OCc2ccc3c(c2)C(=O)N(C2CCC(=O)NC2=O)C3)cc1CN1CC2CC1CO2 (stereo not drawn) [Compound 213]
Cc1ccccc1-c1ccc(NC(=O)OCc2ccc3c(c2)C(=O)N(C2CCC(=O)NC2=O)C3)cn1 (stereo not drawn) [Compound 286]
O=C1CCC(N2Cc3ccc(COC(=O)Nc4ccc5c(c4)OCC5)cc3C2=O)C(=O)N1 (stereo not drawn) [Compound 218]
O=C1CCC(N2Cc3ccc(COC(=O)Nc4cc(CN5CCOCC5)cc(OC(F)(F)F)c4)cc3C2=O)C(=O)N1 (stereo not drawn) [Compound 204]
CN(C)C1CN(c2ccc(NC(=O)OCc3ccc4c(c3)C(=O)N(C3CCC(=O)NC3=O)C4)cn2)C1 (stereo not drawn) [Compound 289]
O=C1CCC(N2Cc3ccc(COC(=O)Nc4cnc5c(c4)CCC5)cc3C2=O)C(=O)N1 (stereo not drawn) [Compound 253]
COc1cc(Cl)ccc1NC(=O)OCc1ccc2c(c1)C(=O)N(C1CCC(=O)NC1=O)C2 (stereo not drawn) [Compound 238]
Cc1c(Cl)cc(NC(=O)OCc2ccc3c(c2)C(=O)N(C2CCC(=O)NC2=O)C3)cc1OCC1CCNC1 (stereo not drawn) [Compound 252]
O=C1CCC(N2Cc3ccc(COC(=O)Nc4cc(CN5CC6CC5CO6)cc(OC(F)F)c4)cc3C2=O)C(=O)N1 (stereo not drawn) [Compound 300]
CC1(c2ccc(NC(=O)OCc3ccc4c(c3)C(=O)N(C3CCC(=O)NC3=O)C4)cc2)COC1 (stereo not drawn) [Compound 262]
O=C1CCC(N2Cc3ccc(COC(=O)Nc4cnc(N5CCCCC5)c(F)c4)cc3C2=O)C(=O)N1 (stereo not drawn) [Compound 272]
O=C1CCC(N2Cc3ccc(COC(=O)Nc4ccc(C5CCC5)nc4)cc3C2=O)C(=O)N1 (stereo not drawn) [Compound 305]
O=C1CCC(N2Cc3ccc(COC(=O)Nc4ccc(N5CCOCC5)nc4)cc3C2=O)C(=O)N1 (stereo not drawn) [Compound 276]
CC(NC(=O)OCc1ccc2c(c1)C(=O)N(C1CCC(=O)NC1=O)C2)c1ccccc1 (stereo not drawn) [Compound 302]
O=C1CCC(N2Cc3ccc(COC(=O)Nc4ccc5c(c4)CCCO5)cc3C2=O)C(=O)N1 (stereo not drawn) [Compound 267]
O=C1CCC(N2Cc3ccc(COC(=O)Nc4cnc(N5CCCCC5)nc4)cc3C2=O)C(=O)N1 (stereo not drawn) [Compound 264]
O=C1CCC(N2Cc3ccc(COC(=O)Nc4cccc(OC5CC5)c4)cc3C2=O)C(=O)N1 (stereo not drawn) [Compound 293]
O=C1CCC(N2Cc3ccc(COC(=O)Nc4cc(OCCN5CCOCC5)cc(OC(F)(F)F)c4)cc3C2=O)C(=O)N1 (stereo not drawn) [Compound 306]
O=C1CCC(N2Cc3ccc(COC(=O)NCc4ccccc4)cc3C2=O)C(=O)N1 (stereo not drawn) [Compound 298]
O=C1CCC(N2Cc3ccc(COC(=O)N4CCCC4)cc3C2=O)C(=O)N1 (stereo not drawn) [Compound 226]
COc1cc(NC(=O)OCc2ccc3c(c2)C(=O)N(C2CCC(=O)NC2=O)C3)cnc1C (stereo not drawn) [Compound 251]
Cc1c(Cl)cc(NC(=O)OCc2ccc3c(c2)C(=O)N(C2CCC(=O)NC2=O)C3)cc1OC1CCNC1 (stereo not drawn) [Compound 244]
CCOc1cc(NC(=O)OCc2ccc3c(c2)C(=O)N(C2CCC(=O)NC2=O)C3)ccc1C (stereo not drawn) [Compound 233]
O=C1CCC(N2Cc3ccc(COC(=O)NC4CCCC4)cc3C2=O)C(=O)N1 (stereo not drawn) [Compound 229]
